Test results as given in ChEMBL document CHEMBL1151757, “Synthesis, radiosynthesis, and biological evaluation of fluorine-18-labeled 2beta-carbo(fluoroalkoxy)-3beta-(3'-((Z)-2-haloethenyl)phenyl)nortropanes: candidate radioligands for in vivo imaging of the serotonin transporter with positron emission tomography” (J Med Chem, 2008).

Legend:
[1] = Ratio of drug uptake in thalamus to cerebellum in anesthetized cynomolgus monkey after 205 mins postinjection; format: ADME, organism-based, Macaca fascicularis; settings: in vivo
[2] = Ratio of drug uptake in occipital lobe to cerebellum in anesthetized cynomolgus monkey after 185 mins postinjection; format: ADME, organism-based, Macaca fascicularis; settings: in vivo
[3] = Ratio of drug uptake in putamen to cerebellum in anesthetized cynomolgus monkey after 9.5 mins postinjection; format: ADME, organism-based, Macaca fascicularis; settings: in vivo
[4] = Ratio of drug uptake in frontal lobe to cerebellum in anesthetized cynomolgus monkey after 95 mins postinjection; format: ADME, organism-based, Macaca fascicularis; settings: in vivo
Medulla [5] = test: Drug uptake in anesthetized cynomolgus monkey brain medulla after 1.5 mins postinjection; format: ADME, organism-based, Macaca fascicularis; settings: in vivo, 0.025 h
Caudate [6] = test: Drug uptake in anesthetized cynomolgus monkey brain caudate after 85 mins postinjection; format: ADME, organism-based, Macaca fascicularis, Caudate nucleus; settings: in vivo
Midbrain [7] = test: Drug uptake in anesthetized cynomolgus monkey brain midbrain after 75 mins postinjection; format: ADME, organism-based, Macaca fascicularis; design: unit not given here; settings: in vivo, 1.25 h
Medulla [8] = test: Drug uptake in anesthetized cynomolgus monkey brain medulla after 65 mins postinjection; format: ADME, organism-based, Macaca fascicularis; settings: in vivo
[9] = Drug uptake in anesthetized cynomolgus monkey brain cerebellum after 27.5 mins postinjection; format: ADME, organism-based, Macaca fascicularis; settings: in vivo
[10] = Drug uptake in anesthetized cynomolgus monkey brain occipital lobe after 6.5 mins postinjection; format: ADME, organism-based, Macaca fascicularis; design: unit not given here; settings: in vivo
[11] = Ratio of drug uptake in putamen to cerebellum in anesthetized cynomolgus monkey after 3.5 mins postinjection; format: ADME, organism-based, Macaca fascicularis; settings: in vivo
Medulla [12] = test: Drug uptake in anesthetized cynomolgus monkey brain medulla after 165 mins postinjection; format: ADME, organism-based, Macaca fascicularis; settings: in vivo, 2.75 h
[13] = Ratio of drug uptake in caudate to cerebellum in anesthetized cynomolgus monkey after 195 mins postinjection; format: ADME, organism-based, Macaca fascicularis; settings: in vivo, 3.25 h
Pons [14] = test: Drug uptake in anesthetized cynomolgus monkey brain pons after 165 mins postinjection; format: ADME, organism-based, Macaca fascicularis; settings: in vivo, 2.75 h
Pons [15] = test: Drug uptake in anesthetized cynomolgus monkey brain pons after 215 mins postinjection; format: ADME, organism-based, Macaca fascicularis; settings: in vivo
Medulla [16] = test: Drug uptake in anesthetized cynomolgus monkey brain medulla after 12.5 mins postinjection; format: ADME, organism-based, Macaca fascicularis; settings: in vivo
[17] = Ratio of drug uptake in midbrain to cerebellum in anesthetized cynomolgus monkey after 145 mins postinjection; format: ADME, organism-based, Macaca fascicularis; settings: in vivo
[18] = Drug uptake in anesthetized cynomolgus monkey brain occipital lobe after 18.5 mins postinjection; format: ADME, organism-based, Macaca fascicularis; settings: in vivo
[19] = Drug uptake in anesthetized cynomolgus monkey brain cerebellum after 105 mins postinjection; format: ADME, organism-based, Macaca fascicularis; settings: in vivo, 1.75 h
Thalamus [20] = test: Drug uptake in anesthetized cynomolgus monkey brain thalamus after 15.5 mins postinjection; format: ADME, organism-based, Macaca fascicularis; design: unit not given here; settings: in vivo
Pons [21] = test: Drug uptake in anesthetized cynomolgus monkey brain pons after 95 mins postinjection; format: ADME, organism-based, Macaca fascicularis; settings: in vivo
[22] = Ratio of drug uptake in thalamus to cerebellum in anesthetized cynomolgus monkey after 135 mins postinjection; format: ADME, organism-based, Macaca fascicularis; settings: in vivo, 2.25 h
[23] = Drug uptake in anesthetized cynomolgus monkey brain cerebellum after 185 mins postinjection; format: ADME, organism-based, Macaca fascicularis; settings: in vivo
[24] = Ratio of drug uptake in medulla to cerebellum in anesthetized cynomolgus monkey after 18.5 mins postinjection; format: ADME, organism-based, Macaca fascicularis; settings: in vivo
[25] = Ratio of drug uptake in frontal lobe to cerebellum in anesthetized cynomolgus monkey after 3.5 mins postinjection; format: ADME, organism-based, Macaca fascicularis; settings: in vivo
Midbrain [26] = test: Drug uptake in anesthetized cynomolgus monkey brain midbrain after 27.5 mins postinjection; format: ADME, organism-based, Macaca fascicularis; design: unit not given here; settings: in vivo
[27] = Drug uptake in anesthetized cynomolgus monkey brain occipital lobe after 165 mins postinjection; format: ADME, organism-based, Macaca fascicularis; settings: in vivo, 2.75 h
[28] = Ratio of drug uptake in occipital lobe to cerebellum in anesthetized cynomolgus monkey after 195 mins postinjection; format: ADME, organism-based, Macaca fascicularis; settings: in vivo, 3.25 h
[29] = Drug uptake in anesthetized cynomolgus monkey brain cerebellum after 65 mins postinjection; format: ADME, organism-based, Macaca fascicularis; settings: in vivo
Pons [30] = test: Drug uptake in anesthetized cynomolgus monkey brain pons after 12.5 mins postinjection; format: ADME, organism-based, Macaca fascicularis; settings: in vivo
Thalamus [31] = test: Drug uptake in anesthetized cynomolgus monkey brain thalamus after 225 mins postinjection; format: ADME, organism-based, Macaca fascicularis; design: unit not given here; settings: in vivo, 3.75 h
[32] = Ratio of drug uptake in midbrain to cerebellum in anesthetized cynomolgus monkey after 85 mins postinjection; format: ADME, organism-based, Macaca fascicularis; settings: in vivo
Thalamus [33] = test: Drug uptake in anesthetized cynomolgus monkey brain thalamus after 175 mins postinjection; format: ADME, organism-based, Macaca fascicularis; design: unit not given here; settings: in vivo
Caudate [34] = test: Drug uptake in anesthetized cynomolgus monkey brain caudate after 235 mins postinjection; format: ADME, organism-based, Macaca fascicularis, Caudate nucleus; settings: in vivo
Midbrain [35] = test: Drug uptake in anesthetized cynomolgus monkey brain midbrain after 2.5 mins postinjection; format: ADME, organism-based, Macaca fascicularis; design: unit not given here; settings: in vivo
[36] = Ratio of drug uptake in medulla to cerebellum in anesthetized cynomolgus monkey after 35 mins postinjection; format: ADME, organism-based, Macaca fascicularis; settings: in vivo
Thalamus [37] = test: Drug uptake in anesthetized cynomolgus monkey brain thalamus after 4.5 mins postinjection; format: ADME, organism-based, Macaca fascicularis; design: unit not given here; settings: in vivo, 0.075 h
Pons [38] = test: Drug uptake in anesthetized cynomolgus monkey brain pons after 155 mins postinjection; format: ADME, organism-based, Macaca fascicularis; settings: in vivo
Pons [39] = test: Drug uptake in anesthetized cynomolgus monkey brain pons after 4.5 mins postinjection; format: ADME, organism-based, Macaca fascicularis; settings: in vivo, 0.075 h
Thalamus [40] = test: Drug uptake in anesthetized cynomolgus monkey brain thalamus after 95 mins postinjection; format: ADME, organism-based, Macaca fascicularis; design: unit not given here; settings: in vivo
[41] = Ratio of drug uptake in medulla to cerebellum in anesthetized cynomolgus monkey after 155 mins postinjection; format: ADME, organism-based, Macaca fascicularis; settings: in vivo
Thalamus [42] = test: Drug uptake in anesthetized cynomolgus monkey brain thalamus after 9.5 mins postinjection; format: ADME, organism-based, Macaca fascicularis; design: unit not given here; settings: in vivo
Medulla [43] = test: Drug uptake in anesthetized cynomolgus monkey brain medulla after 4.5 mins postinjection; format: ADME, organism-based, Macaca fascicularis; settings: in vivo, 0.075 h
Caudate [44] = test: Drug uptake in anesthetized cynomolgus monkey brain caudate after 145 mins postinjection; format: ADME, organism-based, Macaca fascicularis, Caudate nucleus; settings: in vivo
[45] = Drug uptake in anesthetized cynomolgus monkey brain frontal lobe after 215 mins postinjection; format: ADME, organism-based, Macaca fascicularis; settings: in vivo
Caudate [46] = test: Drug uptake in anesthetized cynomolgus monkey brain caudate after 65 mins postinjection; format: ADME, organism-based, Macaca fascicularis, Caudate nucleus; settings: in vivo
Putamen [47] = test: Drug uptake in anesthetized cynomolgus monkey brain putamen after 135 mins postinjection; format: ADME, organism-based, Macaca fascicularis; settings: in vivo, 2.25 h
Putamen [48] = test: Drug uptake in anesthetized cynomolgus monkey brain putamen after 125 mins postinjection; format: ADME, organism-based, Macaca fascicularis; settings: in vivo
[49] = Ratio of drug uptake in caudate to cerebellum in anesthetized cynomolgus monkey after 95 mins postinjection; format: ADME, organism-based, Macaca fascicularis; settings: in vivo

O=C(OCC[18F])C1C2CCC(CC1c1cccc(/C=C\Br)c1)N2 (stereo not drawn)
Ratio [1]: 1.8 | Ratio [2]: 1.3 | Ratio [3]: 1.1 | Ratio [4]: 0.9 | Drug uptake (Medulla [5]): 0.08 | Drug uptake (Caudate [6]): 4.06 | Drug uptake (Midbrain [7]): 4.96 | Drug uptake (Medulla [8]): 4.81 | Drug uptake [9]: 3.8 | Drug uptake [10]: 2.17 | Ratio [11]: 0.9 | Drug uptake (Medulla [12]): 3.94 | Ratio [13]: 1.7 | Drug uptake (Pons [14]): 3.9 | Drug uptake (Pons [15]): 3.22 | Drug uptake (Medulla [16]): 4.2 | Ratio [17]: 2 | Drug uptake [18]: 2.89 | Drug uptake [19]: 2.87 | Drug uptake (Thalamus [20]): 3.29 | Drug uptake (Pons [21]): 4.36 | Ratio [22]: 1.7 | Drug uptake [23]: 1.86 | Ratio [24]: 1.2 | Ratio [25]: 0.5 | Drug uptake (Midbrain [26]): 4.53 | Drug uptake [27]: 2.5 | Ratio [28]: 1.1 | Drug uptake [29]: 3.5 | Drug uptake (Pons [30]): 3.52 | Drug uptake (Thalamus [31]): 2.95 | Ratio [32]: 1.5 | Drug uptake (Thalamus [33]): 3.36 | Drug uptake (Caudate [34]): 2.53 | Drug uptake (Midbrain [35]): 0.55 | Ratio [36]: 1.3 | Drug uptake (Thalamus [37]): 1.44 | Drug uptake (Pons [38]): 3.92 | Drug uptake (Pons [39]): 1.78 | Drug uptake (Thalamus [40]): 4.31 | Ratio [41]: 1.7 | Drug uptake (Thalamus [42]): 2.83 | Drug uptake (Medulla [43]): 2.07 | Drug uptake (Caudate [44]): 3.52 | Drug uptake [45]: 1.97 | Drug uptake (Caudate [46]): 4.08 | Drug uptake (Putamen [47]): 4.4 | Drug uptake (Putamen [48]): 4.59 | Ratio [49]: 1.4

O=C(OCCC[18F])C1C2CCC(CC1c1cccc(/C=C\I)c1)N2 (stereo not drawn)
Ratio [1]: 1.6 | Ratio [2]: 1.1 | Ratio [3]: 0.9 | Ratio [4]: 0.8 | Drug uptake (Medulla [5]): 0.35 | Drug uptake (Caudate [6]): 3.94 | Drug uptake (Midbrain [7]): 5 | Drug uptake (Medulla [8]): 4.96 | Drug uptake [9]: 4.8 | Drug uptake [10]: 2.83 | Ratio [11]: 0.8 | Drug uptake (Medulla [12]): 4.45 | Ratio [13]: 1.3 | Drug uptake (Pons [14]): 3.73 | Drug uptake (Pons [15]): 3.11 | Drug uptake (Medulla [16]): 4.73 | Ratio [17]: 1.8 | Drug uptake [18]: 3.85 | Drug uptake [19]: 3.31 | Drug uptake (Thalamus [20]): 4.11 | Drug uptake (Pons [21]): 4.41 | Ratio [22]: 1.5 | Drug uptake [23]: 2.18 | Ratio [24]: 1 | Ratio [25]: 0.4 | Drug uptake (Midbrain [26]): 5.04 | Drug uptake [27]: 2.59 | Ratio [28]: 1.1 | Drug uptake [29]: 4.08 | Drug uptake (Pons [30]): 3.49 | Drug uptake (Thalamus [31]): 2.83 | Ratio [32]: 1.4 | Drug uptake (Thalamus [33]): 3.44 | Drug uptake (Caudate [34]): 2.41 | Drug uptake (Midbrain [35]): 0.98 | Ratio [36]: 1.1 | Drug uptake (Thalamus [37]): 2.07 | Drug uptake (Pons [38]): 3.52 | Drug uptake (Pons [39]): 1.92 | Drug uptake (Thalamus [40]): 4.52 | Ratio [41]: 1.8 | Drug uptake (Thalamus [42]): 3.45 | Drug uptake (Medulla [43]): 2.58 | Drug uptake (Caudate [44]): 3.24 | Drug uptake [45]: 1.99 | Drug uptake (Caudate [46]): 3.99 | Drug uptake (Putamen [47]): 4.16 | Drug uptake (Putamen [48]): 4.31 | Ratio [49]: 1.1
